Results from patent US8114442B2, “Transdermal pharmaceutical delivery compositions” (Queen Mary & Westfield College, priority 2008, dated 2012).

Key:
[1] = healthy 70 kg-adult; cited from earlier work
[2] = Pilot studies of local anaesthesia by pin-prick and thermal sensitivity testing; type: in vivo, human; settings: applied directly to the skin without NO-generating gel; within 20 minutes
Source text: The anaesthetic used in these initial studies was xylocalne as it was readily available in a pharmaceutical form for mixing.

Compound | generally accepted safe dosage for topical anaesthesia [1] [mg] | level of anaesthesia [2]
CCCCNc1ccc(C(=O)OCCN(C)C)cc1 [tetracaine] | 50 | 
CCN(CC)CC(=O)Nc1c(C)cccc1C [xylocalne] |  | failed to produce any discernible level of anaesthesia
CCN(CC)CC(=O)Nc1c(C)cccc1C [lidocaine] | 750 | 
COC(=O)[C@H]1[C@@H](OC(=O)c2ccccc2)C[C@@H]2CC[C@H]1N2C [cocaine] | 200 | 
